Source: patent US8022061B2, “N-aryl pyrazole compounds, compositions, and methods for their use” (Amgen Inc., priority 2006, dated 2011)

The molecules below were run on ob/ob mice (assay: Increase of circulating insulin concentrations in treated ob/ob mice). Conditions: male ob/ob mice, dose 3 mg/kg p.o., 10 minutes after dosing, relative to control group.
Type: in vivo
Method: The results presented below exemplify that administration of the compounds as provided herein to an art-recognized animal model of human diabetes can lead to increased circulating insulin concentrations in the animal model.
Male ob/ob mice were weighed and bled from tail vein, and blood glucose levels were determined with a glucometer. Animals were placed into control and treatment groups having similar averages of glucose levels and body weights. In the morning of the following day, animals were dosed with vehicle (control group) or test article (5 ml/kg, p.o.). Blood samples were collected just before and 10 minutes after dosing, and the samples were assayed for insulin and glucose concentrations.
Table 1 provides exemplary data showing the increase of circulating insulin concentrations (expressed as ng/ml) in treated mice relative to control group at 10 minutes after dosing the treated mice. Concentrations of the exemplary compound tested in the mice are provided in the righthand column.

In the case of CCCCc1c(C(=O)NC2CCCn3cncc32)cnn1-c1ncc(C)c(-c2cccs2)n1 (stereo not shown) [5-Butyl-1-[5-methyl-4-(2-thienyl)pyrimidin-2-yl]-N-(5,6,7,8-tetrahydroimidazo[1,5-a]pyridin-8-yl)-1H-pyrazole-4-carboxamide], the “Increase in Insulin” value is reported as 1.4 ng/mL.

Same assay, conditions: male ob/ob mice, dose 10 mg/kg p.o., 10 minutes after dosing, relative to control group

Point of comparison: CCCCc1c(C(=O)NCCn2cncc2C(=O)OC)cnn1-c1ncc(C)c(-c2cccs2)n1 [Methyl 1-{2-[({5-butyl-1-[5-methyl-4-(2-thienyl)pyrimidin-2-yl]-1H-pyrazol-4-yl}carbonyl)amino]ethyl}-1H-imidazole-5-carboxylate], “Increase in Insulin” value 6.6 ng/mL. Against it:
- CCCCc1c(C(=O)NCc2cnc3ccccn23)cnn1-c1ncc(Br)c(NC2CCC2)n1 [1-[5-Bromo-4-(cyclobutylamino)pyrimidin-2-yl]-5-butyl-N-(imidazo[1,2-a]pyridin-3-ylmethyl)-1H-pyrazole-4-carboxamide] — within 1.5-fold, 7.2 ng/mL
- CCCc1c(C(=O)NC2CCCc3cnccc32)cnn1-c1ncc(C)c(-c2cccs2)n1 (stereo not shown) [1-[5-Methyl-4-(2-thienyl)pyrimidin-2-yl]-5-propyl-N-(5,6,7,8-tetrahydroisoquinolin-5-yl)-1H-pyrazole-4-carboxamide] — within 1.5-fold, 8.8 ng/mL
- CCCCc1c(C(=O)NCCn2cncc2C(=O)O)cnn1-c1ncc(C)c(-c2cccs2)n1 [1-{2-[({5-Butyl-1-[5-methyl-4-(2-thienyl)pyrimidin-2-yl]-1H-pyrazol-4-yl}carbonyl)amino]ethyl}-1H-imidazole-5-carboxylic acid] — within 1.5-fold, 6.1 ng/mL
- CCOCc1c(C(=O)NC(C)c2ccncc2)cnn1-c1ncc(C)c(-c2cccs2)n1 (stereo not shown) [5-(Ethoxymethyl)-1-[5-methyl-4-(2-thienyl)pyrimidin-2-yl]-N-(1-pyridin-4-ylethyl)-1H-pyrazole-4-carboxamide] — within 1.5-fold, 6.7 ng/mL
- CCCCc1c(C(=O)NC(CC)c2ccncc2)cnn1-c1ncc(C)c(-c2cccs2)n1 (stereo not shown) [5-Butyl-1-[5-methyl-4-(2-thienyl)pyrimidin-2-yl]-N-(1-pyridin-4-ylpropyl)-1H-pyrazole-4-carboxamide] — 2.1-fold lower, 3.1 ng/mL
- CCCCc1c(C(=O)Nc2cccc3ncn(C)c23)cnn1-c1ncc(C)c(-c2cccs2)n1 [5-Butyl-N-(1-methyl-1H-benzo[d]imidazol-7-yl)-1-(5-methyl-4-(thiophen-2-yl)pyrimidin-2-yl)-1H-pyrazole-4-carboxamide] — 1.5-fold lower, 4.3 ng/mL
- CCCCc1c(C(=O)NC(CO)c2ccncc2)cnn1-c1ncc(C)c(-c2cccs2)n1 (stereo not shown) [5-Butyl-N-(2-hydroxy-1-pyridin-4-ylethyl)-1-[5-methyl-4-(2-thienyl)pyrimidin-2-yl]-1H-pyrazole-4-carboxamide] — 1.5-fold lower, 4.3 ng/mL
- CCCCc1c(C(=O)NC2CCn3cncc32)cnn1-c1ncc(C)c(-c2cccs2)n1 (stereo not shown) [5-Butyl-N-(6,7-dihydro-5H-pyrrolo[1,2-c]imidazol-7-yl)-1-[5-methyl-4-(2-thienyl)pyrimidin-2-yl]-1H-pyrazole-4-carboxamide] — 3-fold lower, 2.2 ng/mL
- CCCCc1c(C(=O)NCc2cnc3ccccn23)cnn1-c1ncc(C)c(-c2cccs2)n1 [5-Butyl-N-(imidazo[1,2-a]pyridin-3-ylmethyl)-1-[5-methyl-4-(2-thienyl)pyrimidin-2-yl]-1H-pyrazole-4-carboxamide] — within 1.5-fold, 8.5 ng/mL
- CCCCc1c(C(=O)NCc2c(C)ncn2CC(=O)N(C)C)cnn1-c1ncc(C)c(-c2cccs2)n1 [5-Butyl-N-({1-[2-(dimethylamino)-2-oxoethyl]-4-methyl-1H-imidazol-5-yl}methyl)-1-[5-methyl-4-(2-thienyl)pyrimidin-2-yl]-1H-pyrazole-4-carboxamide] — within 1.5-fold, 4.7 ng/mL
- CCCCc1c(C(=O)NCc2c(C)ncn2CC(=O)NC)cnn1-c1ncc(C)c(-c2cccs2)n1 [5-Butyl-N-({4-methyl-1-[2-(methylamino)-2-oxoethyl]-1H-imidazol-5-yl}methyl)-1-[5-methyl-4-(2-thienyl)pyrimidin-2-yl]-1H-pyrazole-4-carboxamide] — within 1.5-fold, 9 ng/mL
- CCCCc1c(C(=O)NC(C)c2cncn2C)cnn1-c1ncc(C)c(-c2cccs2)n1 (stereo not shown) [5-Butyl-N-[1-(1-methyl-1H-imidazol-5-yl)ethyl]-1-[5-methyl-4-(2-thienyl)pyrimidin-2-yl]-1H-pyrazole-4-carboxamide] — within 1.5-fold, 6.4 ng/mL
- CCCCc1c(C(=O)NCCn2ccnc2)cnn1-c1ncc(C)c(-c2cccs2)n1 [5-Butyl-N-[2-(1H-imidazol-1-yl)ethyl]-1-[5-methyl-4-(2-thienyl)pyrimidin-2-yl]-1H-pyrazole-4-carboxamide] — 2.3-fold lower, 2.9 ng/mL
- CCCCc1c(C(=O)NC(CO)c2cncn2C)cnn1-c1ncc(C)c(-c2cccs2)n1 (stereo not shown) [5-Butyl-N-[2-hydroxy-1-(1-methyl-1H-imidazol-5-yl)ethyl]-1-[5-methyl-4-(2-thienyl)pyrimidin-2-yl]-1H-pyrazole-4-carboxamide] — within 1.5-fold, 5.2 ng/mL
- CCCCc1c(C(=O)NCc2c(C)ncn2CC(=O)O)cnn1-c1ncc(Br)c(NC2CCC2)n1 [(5-{[({1-[5-Bromo-4-(cyclobutylamino)pyrimidin-2-yl]-5-butyl-1H-pyrazol-4-yl}carbonyl)amino]methyl}-4-methyl-1H-imidazol-1-yl)acetic acid] — 3.9-fold lower, 1.7 ng/mL
- CCCCc1c(C(=O)NCc2cncn2CC(=O)O)cnn1-c1ncc(C)c(-c2cccs2)n1 [(5-{[({5-Butyl-1-[5-methyl-4-(2-thienyl)pyrimidin-2-yl]-1H-pyrazol-4-yl}carbonyl)amino]methyl}-1H-imidazol-1-yl)acetic acid] — 1.7-fold lower, 3.8 ng/mL
- CCCCc1c(C(=O)NCc2cncn2CC(=O)OC)cnn1-c1ncc(C)c(-c2cccs2)n1 [Methyl (5-{[({5-butyl-1-[5-methyl-4-(2-thienyl)pyrimidin-2-yl]-1H-pyrazol-4-yl}carbonyl)amino]methyl}-1H-imidazol-1-yl)acetate] — 1.5-fold lower, 4.3 ng/mL
- CCCCc1c(C(=O)Nc2cccc3nc[nH]c23)cnn1-c1ncc(C)c(-c2cccs2)n1 [N-1H-Benzimidazol-7-yl-5-butyl-1-[5-methyl-4-(2-thienyl)pyrimidin-2-yl]-1H-pyrazole-4-carboxamide] — 7.3-fold lower, 0.9 ng/mL
- COCc1c(C(=O)NCc2cnc3ccccn23)cnn1-c1ncc(C)c(-c2cccs2)n1 [N-(Imidazo[1,2-a]pyridin-3-ylmethyl)-5-(methoxymethyl)-1-[5-methyl-4-(2-thienyl)pyrimidin-2-yl]-1H-pyrazole-4-carboxamide] — within 1.5-fold, 4.4 ng/mL
- CCCCc1c(C(=O)N[C@@H](Cc2c[nH]cn2)C(=O)O)cnn1-c1ncc(C)c(-c2cccs2)n1 [N-({5-Butyl-1-[5-methyl-4-(2-thienyl)pyrimidin-2-yl]-1H-pyrazol-4-yl}carbonyl)-L-histidine] — within 1.5-fold, 4.5 ng/mL
- CCCc1c(C(=O)NCCc2cncn2C)cnn1-c1ncc(C)c(-c2cccs2)n1 [N-[2-(1-Methyl-1H-imidazol-5-yl)ethyl]-1-[5-methyl-4-(2-thienyl)pyrimidin-2-yl]-5-propyl-1H-pyrazole-4-carboxamide] — within 1.5-fold, 9.5 ng/mL
- CCCc1c(C(=O)NC(CO)c2cncn2C)cnn1-c1ncc(C)c(-c2cccs2)n1 (stereo not shown) [N-[2-Hydroxy-1-(1-methyl-1H-imidazol-5-yl)ethyl]-1-[5-methyl-4-(2-thienyl)pyrimidin-2-yl]-5-propyl-1H-pyrazole-4-carboxamide] — 2.1-fold lower, 3.1 ng/mL
- CCCCc1c(C(=O)NCc2c(C)ncn2CC(N)=O)cnn1-c1ncc(C)c(-c2cccs2)n1 [N-{[1-(2-Amino-2-oxoethyl)-4-methyl-1H-imidazol-5-yl]methyl}-5-butyl-1-[5-methyl-4-(2-thienyl)pyrimidin-2-yl]-1H-pyrazole-4-carboxamide] — 1.6-fold lower, 4 ng/mL

Same assay, conditions: male ob/ob mice, dose 30 mg/kg p.o., 10 minutes after dosing, relative to control group

Point of comparison: CCCCc1c(C(=O)NCc2ccncc2)cnn1-c1ncc(C)c(-c2cccs2)n1 [5-Butyl-1-[5-methyl-4-(2-thienyl)pyrimidin-2-yl]-N-(pyridin-4-ylmethyl)-1H-pyrazole-4-carboxamide], “Increase in Insulin” value 4.1 ng/mL. Against it:
- CCCCc1c(C(=O)NC(C)(C)c2ccncc2)cnn1-c1ncc(C)c(-c2cccs2)n1 [5-Butyl-N-(1-methyl-1-pyridin-4-ylethyl)-1-[5-methyl-4-(2-thienyl)pyrimidin-2-yl]-1H-pyrazole-4-carboxamide] — within 1.5-fold, 4.6 ng/mL
- CCCc1c(C(=O)NCc2cncn2C)cnn1-c1ncc(C)c(-c2cccs2)n1 [N-[(1-Methyl-1H-imidazol-5-yl)methyl]-1-[5-methyl-4-(2-thienyl)pyrimidin-2-yl]-5-propyl-1H-pyrazole-4-carboxamide] — 7-fold higher, 28.5 ng/mL
